Common to all, as to type: cell-based
In experiment [1] the test system is HIV-1 NL4-3 gp41 S35P pseudovirus. The conditions noted are these: Table 2; for IC50: S35P, TZM-bl cells, 48 h, luciferase, mean ± SD, triplicate, repeated three times. On the procedure: (§1) The entry abilities of A15V, L57H, R68G, G86D, C87Y, E119G, and N140S were almost completely lost, corresponding to LP40-V6, LP40-V7, T20-V9, LP40-V3, LP40-V5, LP40-V4, and T20-V5, respectively, so it was determined that these mutation sites might be lethal mutations. […] The differences between the wild-type envelope proteins and serial mutant proteins in mediating membrane fusion were compared using a double-separated protein-based fusion experimental system. […] G20V, A21T, E119G, and Y127H had only an approximately 10% fusion capacity, and L33S, N42D, N42T, and N43S had less than 50% fusion capacity, but N140S had approximately 60% fusion capacity (Figure 6B). […] Among them, we selected the fusion ability of the sixth hour to evaluate the fusion activities of the mutant strains (Figure 6B).
(§2) Viral RNA was extracted from the supernatant, and, after reverse transcription, the cDNA was amplified using PCR. These amplified DNA were connected to the T-Easy vector and transformed to Trans 2-Blue Chemically Competent Cells. These sequences were determined via sequencing. The expression plasmids, which contained different HIV-1NL4-3 Env mutants, were constructed using DNA assembly (NEBuilder® HiFi DNA Assembly Master Mix). In brief, two primers were used to amplify Env, and the other two primers were used to amplify the vector fragment. The products of PCR were purified with a 20–25 bp overlap in the terminal of Env and the vector fragment Env and the vector fragment were added to the DNA assembly master mix at […] for 15 min and then transformed to Trans 2-Blue Chemically Competent Cells. Additionally, a single-point mutation was generated using double-stranded DNA templates and a selection of mutants with a restriction enzyme (DpnI) as described previously. The successful mutations were confirmed via sequencing.
(§3) The infectivity of HIV Env mutants and the inhibitory activities of membrane fusion inhibitors on mutants in TZM-bl cells were measured using a single-cycle infection assay as described previously. Briefly, the HIV pseudovirus was packed using an Env-coding plasmid, and pSG3ΔEnv was co-transfected into HEK293T cells. pSG3ΔEnv encodes an Env-defective, luciferase-expressing HIV-1 genome. After the pseudoviruses were harvested and filtrated, the amount of pseudoviruses was fixed via P24 antigen, and their infectivity was determined in TZM-bl cells. In order to measure the inhibitory activities of the inhibitors, inhibitors diluted serially 3-fold were mixed with an equal volume of pseudoviruses, and then 100 µL 1 × 10^5/mL TZM-bl cells were added to the mixture and incubated at 37 °C with 5% CO2 for 48 h. After that, TZM-bl cells were lysed using reporter lysis buffer, and IC50 values were calculated according to luciferase activity measured by luciferase assay reagents and a luminescence counter (Promega, Madison, WI, USA).

For experiment [2], the system named is HIV-1 NL4-3 gp41 G20V pseudovirus. The following applies: Table 2; for IC50: G20V, TZM-bl cells, 48 h, luciferase, mean ± SD, triplicate, repeated three times. On the procedure:
as §1, §2, §3

Experiment [3] relates to HIV-1 NL4-3 gp41 E137K pseudovirus. The following applies: Table 2; for IC50: E137K, TZM-bl cells, 48 h, luciferase, mean ± SD, triplicate, repeated three times. On the procedure: as §1, §2, §3
Experiment [4] relates to HIV-1 NL4-3 gp41 A21T pseudovirus. The conditions noted are these: Table 2; for IC50: A21T, TZM-bl cells, 48 h, luciferase, mean ± SD, triplicate, repeated three times. On the procedure: as §1, §2, §3
Experiment [5] relates to HIV-1 NL4-3 gp41 A50V pseudovirus. The conditions noted are these: Table 2; for IC50: A50V, TZM-bl cells, 48 h, luciferase, mean ± SD, triplicate, repeated three times. On the procedure:
as §1, §2, §3

The test system of experiment [6] is HIV-1 NL4-3 gp41 N43S pseudovirus. The following applies: Table 2; for IC50: N43S, TZM-bl cells, 48 h, luciferase, mean ± SD, triplicate, repeated three times. As to the method: as §1, §2, §3
The test system of experiment [7] is HIV-1 NL4-3 gp41 S129N pseudovirus. The conditions noted are these: Table 2; for IC50: S129N, TZM-bl cells, 48 h, luciferase, mean ± SD, triplicate, repeated three times. As to the method:
as §1, §2, §3

The test system of experiment [8] is HIV-1 NL4-3 gp41 Y127H pseudovirus. The following applies: Table 2; for IC50: Y127H, TZM-bl cells, 48 h, luciferase, mean ± SD, triplicate, repeated three times. As to the method: as §1, §2, §3
Experiment [9] relates to HIV-1 NL4-3 gp41 V38T pseudovirus. The following applies: Table 2; for IC50: V38T, TZM-bl cells, 48 h, luciferase, mean ± SD, triplicate, repeated three times. As to the method: as §1, §2, §3
Experiment [10] relates to HIV-1 NL4-3 gp41 D36G pseudovirus. The conditions noted are these: Table 2; for IC50: D36G, TZM-bl cells, 48 h, luciferase, mean ± SD, triplicate, repeated three times. On the procedure:
as §1, §2, §3

The test system of experiment [11] is HIV-1 NL4-3 gp41 V38A pseudovirus. The conditions noted are these: Table 2; for IC50: V38A, TZM-bl cells, 48 h, luciferase, mean ± SD, triplicate, repeated three times. As to the method: as §1, §2, §3
For experiment [12], the system named is HIV-1 NL4-3 gp41 I37T pseudovirus. The conditions noted are these: for Fold change in IC50: I37T relative to WT NL4-3; for IC50: I37T, TZM-bl cells, 48 h, luciferase, mean ± SD, triplicate, repeated three times. On the procedure: as §2, with “previously.” for “previously. The successful mutations were confirmed via sequencing.”
as §3

For experiment [13], the system named is HIV-1 NL4-3 gp41 L33S pseudovirus. The conditions noted are these: for Fold change in IC50: L33S relative to WT NL4-3; for IC50: L33S, TZM-bl cells, 48 h, luciferase, mean ± SD, triplicate, repeated three times. As to the method: as §2, with “previously.” for “previously. The successful mutations were confirmed via sequencing.”
as §3

What is called IC50 is the concentration that inhibits the measured activity by half. Read a low IC50 as greater potency in that assay.

“And” between values parts separate entries of the source, which are not always exact repeats. Identical values can stand only once. Like-named read-outs stand apart in the source and are kept apart here. Where a SMILES comes first, the peptide text is derived from it. The star is where a group is joined. Palmitoyl = CCCCCCCCCCCCCCCC(=O)*

As to `CCCCCCCCCCCCCCCC(=O)NCCCC[C@H](NC(=O)[C@H](CC(=O)O)NC(=O)[C@H](CC(C)C)NC(=O)[C@H](CCC(=O)O)NC(=O)[C@H](CC(C)C)NC(=O)[C@H](CC(C)C)NC(=O)[C@H](CCC(=O)O)NC(=O)[C@H](CCC(N)=O)NC(=O)[C@H](CCC(=O)O)NC(=O)[C@H](CC(N)=O)NC(=O)[C@H](CCCCN)NC(=O)[C@H](CCC(=O)O)NC(=O)[C@H](CCC(N)=O)NC(=O)[C@H](CCC(N)=O)NC(=O)[C@H](CC(N)=O)NC(=O)[C@H](CCC(N)=O)NC(=O)[C@H](CO)NC(=O)[C@H](CCC(=O)O)NC(=O)[C@H](CCC(=O)O)NC(=O)[C@@H](NC(=O)[C@H](CC(C)C)NC(=O)[C@H](CO)NC(=O)[C@H](Cc1c[nH]cn1)NC(=O)[C@@H](NC(=O)[C@H](CC(C)C)NC(=O)[C@H](CO)NC(=O)[C@@H](NC(=O)[C@H](Cc1ccc(O)cc1)NC(C)=O)[C@@H](C)O)[C@@H](C)CC)[C@@H](C)CC)C(N)=O` [LP-40] (Ac-YTSLIHSLIEESQNQQEKNEQELLELDK(Palmitoyl)-NH2), the “Fold change in IC50” value in experiment [1] (S35P relative to WT NL4-3) was 0.69 fold; in [2] (G20V relative to WT NL4-3) it was 6.5 fold and 6.49 fold; in [3] (E137K relative to WT NL4-3) it was 1.35 fold; in experiment [4] (A21T relative to WT NL4-3), 0.85 fold; in [5] (A50V relative to WT NL4-3) it was 1.87 fold; in [6] (N43S relative to WT NL4-3), 11.31 fold. Besides, the “Fold change in IC50” value in [7] (S129N relative to WT NL4-3) was determined as 1.08 fold; in [8] (Y127H relative to WT NL4-3) it was 0.18 fold; in experiment [9] (V38T relative to WT NL4-3), 46.03 fold; in [10] (D36G relative to WT NL4-3), 0.07 fold; in experiment [11] (V38A relative to WT NL4-3), 110.56 fold; in experiment [12] (Table 2), 16.33 fold. In addition, the “Fold change in IC50” value in [12] (Table 3) is 18.85 fold; in [13] (Table 2) it was 67 fold and 67.08 fold; in [13] (Table 3) it was 77.43 fold. Moreover, the IC50 in experiment [1] worked out at 21.6 ± 5.15 nM; in experiment [2] it was 205 ± 47.2 nM; in experiment [3], 42.6 ± 11.7 nM; in experiment [4] it was 26.8 ± 8.36 nM; in experiment [5], 58.8 ± 13.7 nM; in [6], 357 ± 117 nM. The IC50 in [7] worked out at 34 ± 10 nM; in experiment [8], 5.74 ± 1.86 nM; in [9] it was 1450 ± 237 nM; in experiment [10], 2.22 ± 0.57 nM; in experiment [11] it was 3490 ± 423 nM; in experiment [12] (Table 2) it was 515 ± 74.3 nM. The compound also came in with an IC50 in experiment [13] (Table 2) of 2120 ± 534 nM.

As for Enfuvirtide, the IC50 was found to be 138 ± 10.6 nM in experiment [1]; 49.1 ± 10.9 nM in [2]; 68.5 ± 20.1 nM in experiment [3]; 58.9 ± 9.24 nM in experiment [4]; 162 ± 69.4 nM in experiment [5]; 540 ± 91.9 nM in [6]. The IC50 in experiment [7] amounted to 70.3 ± 19.8 nM; in experiment [8] it was 23.7 ± 2.63 nM; in experiment [9], 991 ± 216 nM; in experiment [10], 6 ± 1.68 nM; in [11], 1540 ± 22 nM; in [12] (Table 2), 711 ± 157 nM. This compound also gave an IC50 in [13] (Table 2) of 3450 ± 564 nM.
